Test results: publication PMC9034380 (RSC Advances, 2021)

Tests used:
Type in all cases: cell-based
[1] = test system: Hh signaling pathway; assay: Gli-luciferase; settings: for IC50: read-out: Gli-luc reporter IC50
[2] = test system: Daoy cells; assay: Cell proliferation; settings: Homo sapiens, 48 h, read-out: cell viability
[3] = molecular target: wild-type Smo (Mus musculus, UniProt P56726); assay: Gli-Luc reporter assay in NIH3T3-Gli-Luc cells overexpressing wild-type Smo
[4] = molecular target: Smo D477G (Mus musculus, UniProt P56726, D477G); assay: Gli-Luc reporter assay in NIH3T3-Gli-Luc cells overexpressing Smo D477G
Smo D477G, sequence (P56726 33-793 D477G): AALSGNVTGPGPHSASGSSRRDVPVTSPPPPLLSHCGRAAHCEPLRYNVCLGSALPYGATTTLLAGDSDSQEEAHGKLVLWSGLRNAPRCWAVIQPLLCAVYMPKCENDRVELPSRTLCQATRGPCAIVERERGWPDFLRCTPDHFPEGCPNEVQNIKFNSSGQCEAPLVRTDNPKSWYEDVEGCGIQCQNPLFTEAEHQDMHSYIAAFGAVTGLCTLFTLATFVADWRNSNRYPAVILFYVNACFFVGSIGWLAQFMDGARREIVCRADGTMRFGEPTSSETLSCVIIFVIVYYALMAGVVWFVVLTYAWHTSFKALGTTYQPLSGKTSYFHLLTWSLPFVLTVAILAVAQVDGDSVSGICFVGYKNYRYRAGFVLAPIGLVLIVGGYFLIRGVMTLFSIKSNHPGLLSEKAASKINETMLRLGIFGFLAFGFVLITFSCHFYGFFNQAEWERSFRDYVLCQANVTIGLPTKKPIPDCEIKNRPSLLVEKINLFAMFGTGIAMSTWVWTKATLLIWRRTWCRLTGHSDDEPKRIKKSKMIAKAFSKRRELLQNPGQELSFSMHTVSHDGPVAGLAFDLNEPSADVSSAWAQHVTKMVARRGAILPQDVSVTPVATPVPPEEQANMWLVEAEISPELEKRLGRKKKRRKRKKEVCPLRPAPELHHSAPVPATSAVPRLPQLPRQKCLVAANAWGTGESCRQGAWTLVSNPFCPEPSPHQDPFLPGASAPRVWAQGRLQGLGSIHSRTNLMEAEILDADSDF

[5] = molecular target: Smo (Homo sapiens, UniProt Q99835); assay: Smo ciliary localization in NIH3T3 cells expressing Smo treated with Shh
Smo, sequence (Q99835 28-787): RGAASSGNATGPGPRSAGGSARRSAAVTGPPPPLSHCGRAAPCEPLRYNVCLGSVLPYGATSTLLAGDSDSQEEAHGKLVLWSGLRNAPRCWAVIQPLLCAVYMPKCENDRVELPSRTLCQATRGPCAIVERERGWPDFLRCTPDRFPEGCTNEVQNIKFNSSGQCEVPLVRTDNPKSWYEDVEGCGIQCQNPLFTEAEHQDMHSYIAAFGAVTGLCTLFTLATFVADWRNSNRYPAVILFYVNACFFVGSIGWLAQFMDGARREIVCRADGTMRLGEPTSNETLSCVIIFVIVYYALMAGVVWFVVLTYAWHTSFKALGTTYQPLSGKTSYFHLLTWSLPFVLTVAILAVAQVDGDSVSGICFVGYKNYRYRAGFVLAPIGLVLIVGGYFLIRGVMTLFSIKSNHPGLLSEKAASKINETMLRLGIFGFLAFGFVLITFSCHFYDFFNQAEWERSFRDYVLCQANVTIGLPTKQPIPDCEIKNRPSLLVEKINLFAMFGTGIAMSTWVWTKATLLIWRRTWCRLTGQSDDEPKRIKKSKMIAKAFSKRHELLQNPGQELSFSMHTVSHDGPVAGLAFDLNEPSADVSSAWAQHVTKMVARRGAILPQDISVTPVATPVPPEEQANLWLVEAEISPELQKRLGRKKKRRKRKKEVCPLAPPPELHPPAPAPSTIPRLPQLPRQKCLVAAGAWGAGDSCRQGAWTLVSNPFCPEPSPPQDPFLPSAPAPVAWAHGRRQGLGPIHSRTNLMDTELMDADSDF

wild-type Smo, sequence (P56726 33-793): as the sequence (P56726 33-793 D477G) above, with G445D counted along it

IC50 [1] | SMILES | also measured
20 ± 10 nM | CS(=O)(=O)c1ccc(C(=O)Nc2ccc(Cl)c(-c3ccccn3)c2)c(Cl)c1 [Compound 1, vismodegib, reference compound] | –
50 ± 20 nM | COc1cc(NC(=O)c2cccnc2Cl)ccc1C(=O)Nc1ccc(Cl)c(-c2nc3ccccc3[nH]2)c1 [Compound 14] | –
80 ± 20 nM | COc1cc(NC(=O)c2cccnc2)ccc1C(=O)Nc1ccc(Cl)c(-c2nc3ccccc3[nH]2)c1 [Compound 16] | –
120 ± 60 nM | COc1cc(NC(=O)c2ccccc2Cl)ccc1C(=O)Nc1ccc(Cl)c(-c2ncc(-c3ccccc3)[nH]2)c1 [Compound 17] | –
260 ± 80 nM | COc1cc(NC(=O)c2ccc(Cl)cc2Cl)ccc1C(=O)Nc1ccc(Cl)c(-c2ncc(-c3ccccc3)[nH]2)c1 [Compound 18] | loss of potency vs compound 17 ([1]; Gli-luc IC50 ratio to compound 17): 2.2 fold
250 ± 40 nM | COc1cc(NC(=O)c2ccc(F)cc2)ccc1C(=O)Nc1ccc(Cl)c(-c2ncc(-c3ccccc3)[nH]2)c1 [Compound 20] | –
30 ± 10 nM | COc1cc(NC(=O)c2cccnc2Cl)ccc1C(=O)Nc1ccc(Cl)c(-c2ncc(-c3ccccc3)[nH]2)c1 [Compound 21] | viability at 1 µM [2]: 72%; viability at 10 µM [2]: 43%; potency compared to compound 3 ([1]; Gli-luc reporter, fold higher than compound 3): 6 fold; IC50 [3]: 39 nM; IC50 [4]: 96 nM; Hh pathway inhibition in mutant D477G ([4]; NIH3T3-Gli-Luc cells overexpressing Smo D477G): slightly decreased; shift in IC50, mutant D477G vs WT ([4]; Smo D477G vs wild-type Smo): 2.4 fold; Smo ciliary translocation [5]: sharp drop
150 ± 80 nM | COc1cc(NC(=O)c2ccc(Cl)nc2)ccc1C(=O)Nc1ccc(Cl)c(-c2ncc(-c3ccccc3)[nH]2)c1 [Compound 22] | –
70 ± 20 nM | COc1cc(NC(=O)c2cccnc2)ccc1C(=O)Nc1ccc(Cl)c(-c2ncc(-c3ccccc3)[nH]2)c1 [Compound 23] | –
